Measurements: patent US10550105B2 (Ribon Therapeutics Inc., priority 2018, dated 2020)

target: PARP7 (Homo sapiens (Human), UniProt Q7Z3E1); test: Enzymatic assay for inhibition of PARP7: TR-FRET displacement of biotinylated Probe A from the TIPARP active site; assay type: binding; conditions: Table A-1
Summary of the method: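 TR-FRET, ex 320 nm / em 615 and 665 nm. Signal ratio reflects complex formation.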

PARP7, sequence (Q7Z3E1 whole entry): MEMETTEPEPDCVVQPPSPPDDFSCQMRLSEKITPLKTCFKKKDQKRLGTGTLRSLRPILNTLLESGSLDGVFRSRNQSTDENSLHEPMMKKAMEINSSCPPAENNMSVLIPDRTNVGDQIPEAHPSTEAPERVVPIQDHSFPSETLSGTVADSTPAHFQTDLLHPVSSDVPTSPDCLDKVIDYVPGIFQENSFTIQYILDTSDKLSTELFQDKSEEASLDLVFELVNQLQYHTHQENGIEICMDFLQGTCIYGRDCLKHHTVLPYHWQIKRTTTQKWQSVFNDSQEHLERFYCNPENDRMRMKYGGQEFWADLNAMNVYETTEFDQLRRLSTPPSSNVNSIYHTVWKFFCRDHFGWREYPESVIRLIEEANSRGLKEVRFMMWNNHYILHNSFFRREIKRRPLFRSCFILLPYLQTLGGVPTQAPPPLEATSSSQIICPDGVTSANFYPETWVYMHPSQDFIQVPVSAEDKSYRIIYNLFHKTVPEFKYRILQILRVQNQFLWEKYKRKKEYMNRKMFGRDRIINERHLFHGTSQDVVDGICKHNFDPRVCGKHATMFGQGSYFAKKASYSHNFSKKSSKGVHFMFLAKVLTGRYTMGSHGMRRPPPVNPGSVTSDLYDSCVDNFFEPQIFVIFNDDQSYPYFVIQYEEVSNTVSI

Row | Compound | IC50 [nM]
1 | CCc1c(N2Cc3cccc(OCCO)c3C2)cn[nH]c1=O [Example 185, 4-Ethyl-5-(4-(2-hydroxyethoxy)isoindolin-2-yl)pyridazin-3(2H)-one] | ≥ 1000
2 | O=c1[nH]ncc(N2Cc3cccc(OCCO)c3C2)c1C1CC1 [Example 186, 4-Cyclopropyl-5-(4-(2-hydroxyethoxy)isoindolin-2-yl)pyridazin-3(2H)-one] | ≥ 1000
3 | Cc1c(N2Cc3ccc(OC4CCNCC4)cc3C2)cn[nH]c1=O [Example 187, 4-Methyl-5-(5-(piperidin-4-yloxy)isoindolin-2-yl)pyridazin-3(2H)-one] | ≥ 1000
4 | Cc1c(N2Cc3ccc(OCCO)cc3C2)cn[nH]c1=O [Example 188, 5-(5-(2-Hydroxyethoxy)isoindolin-2-yl)-4-methylpyridazin-3(2H)-one] | 100 to 1000
5 | CSc1c(N2Cc3ccccc3C2)cn[nH]c1=O [Example 189, 5-(Isoindolin-2-yl)-4-(methylthio)pyridazin-3(2H)-one] | 100 to 1000
6 | O=c1[nH]ncc(N2Cc3ccccc3C2CO)c1Cl (stereo not drawn) [Example 191, 4-Chloro-5-(1-(hydroxymethyl)isoindolin-2-yl)pyridazin-3(2H)-one] | ≥ 1000
7 | O=c1[nH]ncc(N2Cc3cccc(OC4CCOCC4)c3C2)c1C(F)(F)F [Example 194, 5-(4-((Tetrahydro-2H-pyran-4-yl)oxy)isoindolin-2-yl)-4-(trifluoromethyl)pyridazin-3(2H)-one] | < 100
8 | O=c1[nH]ncc(N2Cc3cccc(Oc4ccncn4)c3C2)c1C(F)(F)F [Example 195, 5-(4-(Pyrimidin-4-yloxy)isoindolin-2-yl)-4-(trifluoromethyl)pyridazin-3(2H)-one] | < 100
9 | O=C1OCCC1Oc1cccc2c1CN(c1cn[nH]c(=O)c1C(F)(F)F)C2 (stereo not drawn) [Example 202, 5-(4-((2-Oxotetrahydrofuran-3-yl)oxy)isoindolin-2-yl)-4-(trifluoromethyl)pyridazin-3(2H)-one] | < 100
10 | COCC1c2ccccc2CN1c1cn[nH]c(=O)c1Cl (stereo not drawn) [Example 207, 4-Chloro-5-(1-(methoxymethyl)isoindolin-2-yl)pyridazin-3(2H)-one] | ≥ 1000
11 | CC1c2ccccc2CN1c1cn[nH]c(=O)c1Cl (stereo not drawn) [Example 208, 4-Chloro-5-(1-methylisoindolin-2-yl)pyridazin-3(2H)-one] | ≥ 1000
12 | CN1CCC(Oc2cccc3c2CN(c2cn[nH]c(=O)c2C(F)(F)F)C3)CC1 [Example 210, 5-(4-((1-Methylpiperidin-4-yl)oxy)isoindolin-2-yl)-4-(trifluoromethyl)pyridazin-3(2H)-one] | 100 to 1000
13 | O=c1[nH]ncc(N2Cc3cccc(OCCN4CCCCC4)c3C2)c1C(F)(F)F [Example 213, 5-(4-(2-(Piperidin-1-yl)ethoxy)isoindolin-2-yl)-4-(trifluoromethyl)pyridazin-3(2H)-one] | 100 to 1000
14 | O=c1[nH]ncc(N2Cc3cccc(OCCN4CCOCC4)c3C2)c1C(F)(F)F [Example 214, 5-(4-(2-Morpholinoethoxy)isoindolin-2-yl)-4-(trifluoromethyl)pyridazin-3(2H)-one] | < 100
15 | O=c1[nH]ncc(N2Cc3ccc(OC4CCNC4)cc3C2)c1C(F)(F)F (stereo not drawn) [Example 218, 5-(5-(Pyrrolidin-3-yloxy)isoindolin-2-yl)-4-(trifluoromethyl)pyridazin-3(2H)-one] | < 100
16 | O=c1[nH]ncc(N2Cc3ccc(O)cc3C2)c1C(F)(F)F [Example 219, 5-(5-Hydroxyisoindolin-2-yl)-4-(trifluoromethyl)pyridazin-3(2H)-one] | < 100
17 | O=c1[nH]ncc(N2Cc3cccc(OCCN4CCNCC4)c3C2)c1Cl [Example 220, 4-Chloro-5-(4-(2-(piperazin-1-yl)ethoxy)isoindolin-2-yl)pyridazin-3(2H)-one] | 100 to 1000
18 | CC(=O)N1CCC(Oc2cccc3c2CN(c2cn[nH]c(=O)c2C(F)(F)F)C3)CC1 [Example 225, 5-(4-((1-Acetylpiperidin-4-yl)oxy)isoindolin-2-yl)-4-(trifluoromethyl)pyridazin-3(2H)-one] | < 100
19 | CN1CCN(CCOc2cccc3c2CN(c2cn[nH]c(=O)c2C(F)(F)F)C3)CC1 [Example 226, 5-(4-(2-(4-Methylpiperazin-1-yl)ethoxy)isoindolin-2-yl)-4-(trifluoromethyl)pyridazin-3(2H)-one] | < 100
20 | O=c1[nH]ncc(N2Cc3cccc(OCCN4CCNCC4)c3C2)c1C(F)(F)F [Example 227, 5-(4-(2-(Piperazin-1-yl)ethoxy)isoindolin-2-yl)-4-(trifluoromethyl)pyridazin-3(2H)-one] | < 100
21 | CC(=O)N1CCN(CCOc2cccc3c2CN(c2cn[nH]c(=O)c2C(F)(F)F)C3)CC1 [Example 228, 5-(4-(2-(4-Acetylpiperazin-1-yl)ethoxy)isoindolin-2-yl)-4-(trifluoromethyl)pyridazin-3(2H)-one] | < 100

The remaining lines, values ahead:

Row | IC50 [nM] | Compound
22 | < 100 | CCOc1cccc2c1CN(c1cn[nH]c(=O)c1C(F)(F)F)C2 [Example 192, 5-(4-Ethoxyisoindolin-2-yl)-4-(trifluoromethyl)pyridazin-3(2H)-one]
23 | < 100 | CC(C)Oc1cccc2c1CN(c1cn[nH]c(=O)c1C(F)(F)F)C2 [Example 193, 5-(4-Isopropoxyisoindolin-2-yl)-4-(trifluoromethyl)pyridazin-3(2H)-one]
24 | < 100 | O=c1[nH]ncc(N2Cc3cccc(OCc4ccncc4)c3C2)c1C(F)(F)F [Example 196, 5-(4-(Pyridin-4-ylmethoxy)isoindolin-2-yl)-4-(trifluoromethyl)pyridazin-3(2H)-one]
25 | < 100 | O=c1[nH]ncc(N2Cc3cccc(OCc4cccnc4)c3C2)c1C(F)(F)F [Example 197, 5-(4-(Pyridin-3-ylmethoxy)isoindolin-2-yl)-4-(trifluoromethyl)pyridazin-3(2H)-one]
26 | < 100 | O=c1[nH]ncc(N2Cc3cccc(OCc4ccccn4)c3C2)c1C(F)(F)F [Example 198, 5-(4-(Pyridin-2-ylmethoxy)isoindolin-2-yl)-4-(trifluoromethyl)pyridazin-3(2H)-one]
27 | < 100 | O=c1[nH]ncc(N2Cc3cccc(OCC4CCCOC4)c3C2)c1C(F)(F)F (stereo not drawn) [Example 199, 5-(4-((Tetrahydro-2H-pyran-3-yl)methoxy)isoindolin-2-yl)-4-(trifluoromethyl)pyridazin-3(2H)-one]
28 | < 100 | O=c1[nH]ncc(N2Cc3cccc(OCC4CCOC4)c3C2)c1C(F)(F)F (stereo not drawn) [Example 200, 5-(4-((Tetrahydrofuran-3-yl)methoxy)isoindolin-2-yl)-4-(trifluoromethyl)pyridazin-3(2H)-one]
29 | < 100 | O=c1[nH]ncc(N2Cc3cccc(OCC4CCCO4)c3C2)c1C(F)(F)F (stereo not drawn) [Example 201, 5-(4-((Tetrahydrofuran-2-yl)methoxy)isoindolin-2-yl)-4-(trifluoromethyl)pyridazin-3(2H)-one]
30 | < 100 | O=c1[nH]ncc(N2Cc3cccc(OC4CCOC4)c3C2)c1C(F)(F)F (stereo not drawn) [Example 203, 5-(4-((Tetrahydrofuran-3-yl)oxy)isoindolin-2-yl)-4-(trifluoromethyl)pyridazin-3(2H)-one]
31 | 100 to 1000 | NC(=O)COc1cccc2c1CN(c1cn[nH]c(=O)c1C(F)(F)F)C2 [Example 204, 2-((2-(6-Oxo-5-(trifluoromethyl)-1,6-dihydropyridazin-4-yl)isoindolin-4-yl)oxy)acetamide]
32 | < 100 | Nc1cccc2c1CN(c1cn[nH]c(=O)c1C(F)(F)F)C2 [Example 205, 5-(4-Aminoisoindolin-2-yl)-4-(trifluoromethyl)pyridazin-3(2H)-one]
33 | < 100 | N#Cc1cccc2c1CN(c1cn[nH]c(=O)c1C(F)(F)F)C2 [Example 206, 2-(6-Oxo-5-(trifluoromethyl)-1,6-dihydropyridazin-4-yl)isoindoline-4-carbonitrile]
34 | < 100 | NCCOc1cccc2c1CN(c1cn[nH]c(=O)c1C(F)(F)F)C2 [Example 209, 5-(4-(2-Aminoethoxy)isoindolin-2-yl)-4-(trifluoromethyl)pyridazin-3(2H)-one]
35 | < 100 | CC(=O)NCCOc1cccc2c1CN(c1cn[nH]c(=O)c1C(F)(F)F)C2 [Example 211, N-(2-((2-(6-Oxo-5-(trifluoromethyl)-1,6-dihydropyridazin-4-yl)isoindolin-4-yl)oxy)ethyl)acetamide]
36 | 100 to 1000 | CN(C)CCOc1cccc2c1CN(c1cn[nH]c(=O)c1C(F)(F)F)C2 [Example 212, 5-(4-(2-(Dimethylamino)ethoxy)isoindolin-2-yl)-4-(trifluoromethyl)pyridazin-3(2H)-one]
37 | < 100 | CNc1cccc2c1CN(c1cn[nH]c(=O)c1C(F)(F)F)C2 [Example 215, 5-(4-(Methylamino)isoindolin-2-yl)-4-(trifluoromethyl)pyridazin-3(2H)-one]
38 | < 100 | O=c1[nH]ncc(N2Cc3cccc(OCC4CCCCO4)c3C2)c1C(F)(F)F (stereo not drawn) [Example 216, 5-(4-((Tetrahydro-2H-pyran-2-yl)methoxy)isoindolin-2-yl)-4-(trifluoromethyl)pyridazin-3(2H)-one]
39 | 100 to 1000 | CNCCOc1cccc2c1CN(c1cn[nH]c(=O)c1C(F)(F)F)C2 [Example 217, 5-(4-(2-(Methylamino)ethoxy)isoindolin-2-yl)-4-(trifluoromethyl)pyridazin-3(2H)-one]
40 | ≥ 1000 | NCc1cccc2c1CN(c1cn[nH]c(=O)c1C(F)(F)F)C2 [Example 221, 5-(4-(Aminomethyl)isoindolin-2-yl)-4-(trifluoromethyl)pyridazin-3(2H)-one]
41 | < 100 | O=c1[nH]ncc(N2Cc3cccc(OC[C@H]4CCCO4)c3C2)c1C(F)(F)F [Example 223, (R)-5-(4-((Tetrahydrofuran-2-yl)methoxy)isoindolin-2-yl)-4-(trifluoromethyl)pyridazin-3(2H)-one]
42 | < 100 | CC(=O)N(C)CCOc1cccc2c1CN(c1cn[nH]c(=O)c1C(F)(F)F)C2 [Example 224, N-Methyl-N-(2-((2-(6-oxo-5-(trifluoromethyl)-1,6-dihydropyridazin-4-yl)isoindolin-4-yl)oxy)ethyl)acetamide]
